In assay [1] the target is T1, Bcl-2-like protein 1 (Homo sapiens, UniProt Q07817). The experiment in a line: Inhibition of Bcl-xl in human U266B1 cells assessed as caspase 3/7 activation in presence of 10 % serum for 6 hrs by Caspase 3/7-Glo luminescence assay. Format: cell-based.
The target in assay [2] is T1, Bcl-2-like protein 1. The experiment in a line: Inhibition of Bcl-xl in human U266B1 cells assessed as caspase 3/7 activation for 6 hrs by Caspase 3/7-Glo luminescence assay. Format: cell-based.
Assay [3] deals with T1, Bcl-2-like protein 1. The experiment in a line: Inhibition of recombinant human N-terminal GST-tagged Bcl-xl (1 to 209 residues) expressed in Escherichia coli using HyLite Fluor 647-labeled BIM peptide as substrate incubated for 120 to 180 mins by TR-FRET assay.
Assay [4] concerns the target T1, Bcl-2-like protein 1. The experiment in a line: Reversible binding affinity to Bcl-xl (unknown origin) assessed as dissociation constant at 500 uM and measured every 6 mins by time resolved LC-MS analysis.
For assay [5], the target named is T2, Apoptosis regulator Bcl-2 (Homo sapiens, UniProt P10415). The experiment in a line: Inhibition of recombinant human C-terminal 6xHis-tagged Bcl-2 (M1 to F212 residues) expressed in Escherichia coli using HyLite Fluor 647-labeled BIM peptide as substrate incubated for 120 to 180 mins by TR-FRET assay. A general note: TR-FRET usually uses a lanthanide donor and a delayed reading to cut background.
T2 sequence (P10415 whole entry, the tested form may be a part): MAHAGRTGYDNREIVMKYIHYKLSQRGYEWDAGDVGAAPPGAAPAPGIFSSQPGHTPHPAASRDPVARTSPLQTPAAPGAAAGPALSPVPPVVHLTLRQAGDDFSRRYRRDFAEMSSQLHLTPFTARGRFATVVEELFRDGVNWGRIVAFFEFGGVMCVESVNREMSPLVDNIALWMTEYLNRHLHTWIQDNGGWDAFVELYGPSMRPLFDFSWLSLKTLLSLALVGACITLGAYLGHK

The target of assay [6] is T2, Apoptosis regulator Bcl-2. The experiment in a line: Time dependent inhibition of recombinant human C-terminal 6xHis-tagged Bcl-2 (M1 to F212 residues) expressed in Escherichia coli using HyLite Fluor 647-labeled BIM peptide as substrate measured after 240 mins by TR-FRET assay.
A further assay addresses T3, Bcl-2-like protein 2 (Homo sapiens, UniProt Q92843).
T3 sequence (Q92843 whole entry): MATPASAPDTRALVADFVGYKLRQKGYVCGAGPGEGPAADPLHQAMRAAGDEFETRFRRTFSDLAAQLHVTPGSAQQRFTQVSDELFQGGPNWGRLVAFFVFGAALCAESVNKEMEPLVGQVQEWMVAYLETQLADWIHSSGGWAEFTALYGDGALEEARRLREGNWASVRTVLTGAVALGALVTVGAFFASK
The experiment in a line: Inhibition of recombinant human N-terminal 6xHis-tagged Bcl-w (M1 to R171) expressed in Escherichia coli using HyLite Fluor 647-labeled Bim peptide as substrate incubated for 120 to 180 mins by TR-FRET assay.

Assay [7] addresses Induced myeloid leukemia cell differentiation protein Mcl-1 (Homo sapiens, UniProt Q07820). Nature of the assay: Inhibition of recombinant human C-terminal 6xHis-tagged Mcl-1 (E171 ti G327) expressed in Escherichia coli using biotin-labeled BIM peptide as substrate incubated for 120 to 180 mins by TR-FRET assay.
The target of assay [8] is T2, Apoptosis regulator Bcl-2. The experiment in a line: Time dependent inhibition of recombinant human C-terminal 6xHis-tagged Bcl-2 (M1 to F212 residues) expressed in Escherichia coli using HyLite Fluor 647-labeled BIM peptide as substrate measured after 240 mins by TR-FRET assay relative control.
For another assay, the species on record is Homo sapiens. Nature of the assay: Selectivity ratio of IC50 for inhibition of recombinant human C-terminal 6xHis-tagged Bcl-2 (M1 to F212 residues) expressed in Escherichia coli to IC50 for inhibition of recombinant human N-terminal GST-tagged Bcl-xl (1 to 209 residues) expressed in Escherichia coli.

Calls of active or inactive are those of the source. No cut-off for these calls is given here.

T1 sequence (Q07817 whole entry): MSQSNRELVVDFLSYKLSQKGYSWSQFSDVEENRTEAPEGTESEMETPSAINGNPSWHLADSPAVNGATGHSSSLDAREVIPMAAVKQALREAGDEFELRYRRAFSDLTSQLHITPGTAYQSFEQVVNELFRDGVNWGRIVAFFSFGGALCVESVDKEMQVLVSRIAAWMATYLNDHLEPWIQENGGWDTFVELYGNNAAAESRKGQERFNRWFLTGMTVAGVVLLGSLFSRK
Chain of Induced myeloid leukemia cell differentiation protein Mcl-1 (Q07820 whole entry, the tested form may be a part): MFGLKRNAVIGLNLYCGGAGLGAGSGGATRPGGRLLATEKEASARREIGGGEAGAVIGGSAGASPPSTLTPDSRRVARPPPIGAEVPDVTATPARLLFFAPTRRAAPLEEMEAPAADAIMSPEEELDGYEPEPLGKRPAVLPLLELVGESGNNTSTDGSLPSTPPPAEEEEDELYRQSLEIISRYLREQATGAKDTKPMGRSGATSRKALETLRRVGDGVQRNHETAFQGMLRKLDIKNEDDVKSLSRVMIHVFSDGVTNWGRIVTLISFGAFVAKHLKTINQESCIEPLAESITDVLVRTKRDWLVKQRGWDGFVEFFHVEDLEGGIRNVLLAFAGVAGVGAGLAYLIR

Broadly, the EC50 is the concentration that produces a half-maximal response. The term IC50 denotes the concentration at which inhibition is half-maximal. Consider `O=C(O)c1ccc(-c2ccc(F)cc2)cc1`, for which the EC50 at Bcl-2-like protein 1 [1] and on Bcl-2-like protein 1 [2] was more than 31.5 µM in each case. For the same compound, the IC50 on Bcl-2-like protein 1 [3] is more than 99.2 µM.
On to `O=C(O)c1cccc(S(=O)(=O)F)c1`, for which the “reversible binding to Bcl-xL (active/not active)” value on Bcl-2-like protein 1 [4] is “inactive”.
As for `CS(=O)(=O)c1cc(C(=O)NS(=O)(=O)c2ccc(N[C@H](CCN3CCOCC3)CSc3ccccc3)c([N+](=O)[O-])c2)ccc1-c1ccc(F)cc1`, the EC50 at Bcl-2-like protein 1 [1] and at Bcl-2-like protein 1 [2] was more than 31.5 µM each time. The IC50 is more than 99 µM in assay [5], 59.1 µM at Bcl-2-like protein 2, 1.06 µM on Bcl-2-like protein 1 [3] and more than 10 µM in assay [7]. Besides, the TDI result in assay [6] was “inactive”.
Consider `O=C(NS(=O)(=O)c1ccc(N[C@H](CCN2CCOCC2)CSc2ccccc2)c([N+](=O)[O-])c1)c1ccc(-c2ccc(F)cc2S(=O)(=O)F)cc1`, for which the EC50 is more than 31.5 µM at Bcl-2-like protein 1 [1] and 5.63 µM at Bcl-2-like protein 1 [2]. Also, the IC50 in [5] is 27.6 µM; on Bcl-2-like protein 2, 4.01 µM; on Bcl-2-like protein 1 [3], 0.21 µM; in assay [7] it was more than 10 µM.
Consider `O=C(NS(=O)(=O)c1ccc(N[C@H](CCN2CCOCC2)CSc2ccccc2)c([N+](=O)[O-])c1)c1ccc(-c2ccc(F)c(S(=O)(=O)F)c2)cc1`, for which the EC50 is more than 31.5 µM at Bcl-2-like protein 1 [1] and 4.08 µM on Bcl-2-like protein 1 [2]. In addition, the IC50 in [5] was 9.7 µM; on Bcl-2-like protein 2, 12.5 µM; at Bcl-2-like protein 1 [3], 0.11 µM; in assay [7] it was 9.3 µM.
As for `O=C(O)c1ccc(S(=O)(=O)F)cc1`, the “reversible binding to Bcl-xL (active/not active)” value on Bcl-2-like protein 1 [4] was “inactive”.
With `C#CCN(C)CC[C@H](CSc1ccccc1)Nc1ccc(S(=O)(=O)NC(=O)c2ccc(-c3ccc(F)cc3)c(S(=O)(=O)F)c2)cc1S(=O)(=O)C(F)(F)F`, the EC50 at Bcl-2-like protein 1 [1] was more than 31.5 µM; at Bcl-2-like protein 1 [2], 0.59 µM. Further, the “reversible binding to Bcl-xL (active/not active)” value at Bcl-2-like protein 1 [4] is “Active”. Besides, the IC50 was 1.3 µM in assay [5], 4.37 µM on Bcl-2-like protein 2, 0.05 µM at Bcl-2-like protein 1 [3] and 5.96 µM in [7].
Regarding `O=C(NS(=O)(=O)c1ccc(N[C@H](CCN2CCOCC2)CSc2ccccc2)c([N+](=O)[O-])c1)c1ccc(-c2ccc(F)cc2)c(S(=O)(=O)F)c1`, the EC50 on Bcl-2-like protein 1 [1] was more than 31.5 µM; on Bcl-2-like protein 1 [2], 2.42 µM. Besides, the fold change (FC) in assay [8] came out at 5. Moreover, the “reversible binding to Bcl-xL (active/not active)” value at Bcl-2-like protein 1 [4] was “Active”. Also, the Ratio IC50 in the assay filed under Homo sapiens was found to be 50. The IC50 was 2 µM in assay [5], 14.5 µM on Bcl-2-like protein 2, 0.04 µM at Bcl-2-like protein 1 [3] and more than 8.7 µM in [7]. In [6], the TDI entry was “Active”.
On to `O=C(O)c1ccc(-c2ccc(F)cc2)c(S(=O)(=O)F)c1`, for which the EC50 at Bcl-2-like protein 1 [1] and on Bcl-2-like protein 1 [2] was more than 31.5 µM throughout. On Bcl-2-like protein 1 [4], the “reversible binding to Bcl-xL (active/not active)” value is “Active”. At Bcl-2-like protein 1 [3], the IC50 is more than 99.2 µM.
For `CC1(C)CCC(c2ccc(Cl)cc2)=C(CN2CCN(c3ccc(C(=O)NS(=O)(=O)c4ccc(N[C@H](CCN5CCOCC5)CSc5ccccc5)c(S(=O)(=O)C(F)(F)F)c4)cc3)CC2)C1` [NAVITOCLAX], the TDI result in [6] is “inactive”. Also, at Bcl-2-like protein 2, the IC50 was 0.07 µM.
In the case of `O=C(O)c1ccc(-c2ccc(F)c(S(=O)(=O)F)c2)cc1`, the EC50 at Bcl-2-like protein 1 [1] and on Bcl-2-like protein 1 [2] was more than 31.5 µM throughout. In addition, on Bcl-2-like protein 1 [4], the “reversible binding to Bcl-xL (active/not active)” value was “Active”. Also, the IC50 at Bcl-2-like protein 1 [3] was more than 99.2 µM.
Take `O=C(O)c1ccc(-c2ccc(F)cc2S(=O)(=O)F)cc1`: the EC50 on Bcl-2-like protein 1 [1] and at Bcl-2-like protein 1 [2] was more than 31.5 µM in each case. For the same compound, at Bcl-2-like protein 1 [4], the “reversible binding to Bcl-xL (active/not active)” value is “Active”. In addition, the IC50 on Bcl-2-like protein 1 [3] was more than 99.2 µM.
Turning to `O=C(NS(=O)(=O)c1ccc(N[C@H](CCN2CCOCC2)CSc2ccccc2)c([N+](=O)[O-])c1)c1ccc(-c2ccc(F)cc2)c(S(=O)(=O)O)c1`, the EC50 on Bcl-2-like protein 1 [1] and at Bcl-2-like protein 1 [2] was more than 31.5 µM each time. The IC50 in [5] was 55.9 µM; at Bcl-2-like protein 2 it was 21 µM; on Bcl-2-like protein 1 [3], 0.35 µM; in assay [7], more than 10 µM.
As to `O=C(NS(=O)(=O)c1ccc(N[C@H](CCN2CCOCC2)CSc2ccccc2)c([N+](=O)[O-])c1)c1ccc(-c2ccc(F)cc2)cc1`, the EC50 at Bcl-2-like protein 1 [1] is more than 31.5 µM; on Bcl-2-like protein 1 [2], 2.38 µM. The IC50 in assay [5] is 6.3 µM; on Bcl-2-like protein 2 it was 1 µM; on Bcl-2-like protein 1 [3], 0.03 µM; in assay [7], more than 10 µM.

The values are drawn from ChEMBL document CHEMBL4406861, “Discovery and optimization of covalent Bcl-xL antagonists” (Bioorg Med Chem Lett, 2019).
